Assay results taken from PubChem BioAssay AID2060330 (Molecular Pharmacology Branch, DTP, NCI, 2025).

Tested on: LG0703-F948-PDC spheroids with HUVEC/MSC, viability
Assay: Anticancer human tumor LG0703-F948-PDC patient-derived lung adenocarcinoma cell line growth inhibition [IpAb]
Conditions: for IC50: curve of first compound; for viability, T/C: stronger effect = lower value
In short: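 Combinations with ipatasertib or abemaciclib were tested on tumour spheroids holding HUVEC (25%) and MSC (15%) alongside 60% malignant cells. Top concentration was at or near clinical Cmax (10 microM if undefined), descending in half-log steps.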

[1] = second compound 0.01 µM, first compound 0.0316 µM
[2] = second compound 0.01 µM, first compound 0.1 µM
[3] = second compound 0.0316 µM, first compound 0.0316 µM
[4] = second compound 0.0316 µM, first compound 0.1 µM
[5] = second compound 0.1 µM, first compound 0.0316 µM
[6] = second compound 0.1 µM, first compound 0.1 µM
[7] = second compound 0.316 µM, first compound 0.0316 µM
[8] = second compound 0.316 µM, first compound 0.1 µM
[9] = second compound 1 µM, first compound 0.0316 µM
[10] = second compound 1 µM, first compound 0.1 µM
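Note: spheroids exposed to compounds for seven days before readout.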
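Throughout, for viability, T/C: T/C percent relative to DMSO vehicle wells set as 100% viability.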

C=CCn1c(=O)c2cnc(Nc3ccc(N4CCN(C)CC4)cc3)nc2n1-c1cccc(C(C)(C)O)n1 + CCN1CCN(Cc2ccc(Nc3ncc(F)c(-c4cc(F)c5nc(C)n(C(C)C)c5c4)n3)nc2)CC1
IC50 (second compound 0.01 µM): 1160 nM
IC50 (second compound 0.0316 µM): 1010 nM
IC50 (second compound 0.1 µM): 898 nM
IC50 (second compound 0.316 µM): 862 nM
IC50 (second compound 1 µM): 421 nM
viability, T/C [1]: 120%
viability, T/C [2]: 101%
viability, T/C (second compound 0.01 µM, first compound 0.316 µM): 86%
viability, T/C (second compound 0.01 µM, first compound 1 µM): 58.9%
viability, T/C (second compound 0.01 µM, first compound 3.16 µM): 17.3%
viability, T/C (second compound 0.01 µM, first compound 10 µM): 8.27%
viability, T/C [3]: 99.6%
viability, T/C [4]: 94.1%
viability, T/C (second compound 0.0316 µM, first compound 0.316 µM): 78.7%
viability, T/C (second compound 0.0316 µM, first compound 1 µM): 53.2%
viability, T/C (second compound 0.0316 µM, first compound 3.16 µM): 16.6%
viability, T/C (second compound 0.0316 µM, first compound 10 µM): 6.85%
viability, T/C [5]: 95.8%
viability, T/C [6]: 76.5%
viability, T/C (second compound 0.1 µM, first compound 0.316 µM): 71.2%
viability, T/C (second compound 0.1 µM, first compound 1 µM): 53.5%
viability, T/C (second compound 0.1 µM, first compound 3.16 µM): 16%
viability, T/C (second compound 0.1 µM, first compound 10 µM): 4.26%
viability, T/C [7]: 85.3%
viability, T/C [8]: 79.6%
viability, T/C (second compound 0.316 µM, first compound 0.316 µM): 69.4%
viability, T/C (second compound 0.316 µM, first compound 1 µM): 47.7%
viability, T/C (second compound 0.316 µM, first compound 3.16 µM): 21.4%
viability, T/C (second compound 0.316 µM, first compound 10 µM): 7.46%
viability, T/C [9]: 88.4%
viability, T/C [10]: 69.8%
viability, T/C (second compound 1 µM, first compound 0.316 µM): 51.8%
viability, T/C (second compound 1 µM, first compound 1 µM): 40.1%
viability, T/C (second compound 1 µM, first compound 3.16 µM): 21.8%
viability, T/C (second compound 1 µM, first compound 10 µM): 3.5%

CC(C)n1nc(-c2ccc3oc(N)nc3c2)c2c(N)ncnc21 + CCN1CCN(Cc2ccc(Nc3ncc(F)c(-c4cc(F)c5nc(C)n(C(C)C)c5c4)n3)nc2)CC1
IC50 (second compound 0.01 µM): 4.38 nM
IC50 (second compound 0.0316 µM): 3.3 nM
IC50 (second compound 0.1 µM): 4.23 nM
IC50 (second compound 0.316 µM): 6.16 nM
IC50 (second compound 1 µM): 3.98 nM
viability, T/C (second compound 0.01 µM, first compound 0.000316 µM): 112%
viability, T/C (second compound 0.01 µM, first compound 0.001 µM): 78.6%
viability, T/C (second compound 0.01 µM, first compound 0.00316 µM): 56.5%
viability, T/C (second compound 0.01 µM, first compound 0.01 µM): 38%
viability, T/C [1]: 24%
viability, T/C [2]: 21.4%
viability, T/C (second compound 0.0316 µM, first compound 0.000316 µM): 87.9%
viability, T/C (second compound 0.0316 µM, first compound 0.001 µM): 70.1%
viability, T/C (second compound 0.0316 µM, first compound 0.00316 µM): 52%
viability, T/C (second compound 0.0316 µM, first compound 0.01 µM): 33.9%
viability, T/C [3]: 22.3%
viability, T/C [4]: 21.8%
viability, T/C (second compound 0.1 µM, first compound 0.000316 µM): 87.4%
viability, T/C (second compound 0.1 µM, first compound 0.001 µM): 71.2%
viability, T/C (second compound 0.1 µM, first compound 0.00316 µM): 52.1%
viability, T/C (second compound 0.1 µM, first compound 0.01 µM): 40.5%
viability, T/C [5]: 29.3%
viability, T/C [6]: 22.3%
viability, T/C (second compound 0.316 µM, first compound 0.000316 µM): 82.5%
viability, T/C (second compound 0.316 µM, first compound 0.001 µM): 77.1%
viability, T/C (second compound 0.316 µM, first compound 0.00316 µM): 58.4%
viability, T/C (second compound 0.316 µM, first compound 0.01 µM): 43%
viability, T/C [7]: 32%
viability, T/C [8]: 24.8%
viability, T/C (second compound 1 µM, first compound 0.000316 µM): 90%
viability, T/C (second compound 1 µM, first compound 0.001 µM): 65%
viability, T/C (second compound 1 µM, first compound 0.00316 µM): 48.1%
viability, T/C (second compound 1 µM, first compound 0.01 µM): 46.6%
viability, T/C [9]: 44.1%
viability, T/C [10]: 28.8%
